Reference: the supplement of paper PMC11061612

Legend:
[1] = tested on: KU812 (Chronic Myelogenous Leukemia); test: combination Emax (second highest fraction inhibited in the dose matrix, 72 h); higher = more inhibition; extreme values may be limits of the assay
Summary of the method: (§1)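 Cell lines grown in DMEM/F12 or RPMI with 10% FBS were plated in 1536-well plates and held 24 hours at 37°C, 5% CO2 before 72 hours of exposure to two-drug dose matrices, with DMSO typically at 0.2%. CellTiter-Glo 2.0 luminescence gave viability, which was converted to inhibition. Vehicle wells were set to 0 and blank wells to 1. Combination Emax is the second-highest inhibition in the matrix, and Bliss excess is the observed combination effect minus the expected EA + EB − EA·EB, where EA and EB are the single-agent effects.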

[2] = tested on: HCC1187 (Breast Carcinoma); test: Bliss excess, mean over the matrix (fraction); higher = more synergy
Summary of the method: as §1

[3] = tested on: CHSA8926 (Chondrosarcoma); test: as above
Summary of the method: as §1

[4] = tested on: NCI-H526 (Small Cell Lung Carcinoma); test: as above
Summary of the method: as §1

[5] = tested on: SJSA-1 (Osteosarcoma); test: as above
Summary of the method: as §1

[6] = tested on: KP-3 (Pancreatic Carcinoma); test: as above
Summary of the method: as §1

[7] = tested on: IM-95 (Gastric Carcinoma); test: as above
Summary of the method: as §1

[8] = tested on: KY821 (Acute Myeloid Leukemia); test: as above
Summary of the method: as §1

[9] = tested on: MN-60 (B-Lymphoblastic Leukemia); test: as above
Summary of the method: as §1

[10] = tested on: NCI-H929 (Plasma Cell Myeloma); test: as above
Summary of the method: as §1

[11] = tested on: KYSE-270 (Esophageal Squamous Cell Carcinoma); test: as above
Summary of the method: as §1

[12] = tested on: G-361 (Melanoma); test: as above
Summary of the method: as §1

[13] = tested on: NCCIT (Other Solid Carcinomas); test: as above
Summary of the method: as §1

[14] = tested on: M059J (Glioblastoma); test: as above
Summary of the method: as §1

[15] = tested on: MOG-G-CCM (Low Grade Glioma); test: as above
Summary of the method: as §1

[16] = tested on: MOLM-13 (Acute Myeloid Leukemia); test: as above
Summary of the method: as §1

[17] = tested on: PC-3 (Prostate Carcinoma); test: as above
Summary of the method: as §1

[18] = tested on: JHH-4 (Hepatocellular Carcinoma); test: as above
Summary of the method: as §1

[19] = tested on: DAN-G (Pancreatic Carcinoma); test: as above
Summary of the method: as §1

[20] = tested on: SUP-B15 (B-Lymphoblastic Leukemia); test: as above
Summary of the method: as §1
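Throughout, for Bliss excess, mean over the matrix: after 72 h of two-drug dosing.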

Compound | combination Emax [1] | Bliss excess [2] | Bliss excess [3] | Bliss excess [4] | Bliss excess [5] | Bliss excess [6] | Bliss excess [7] | Bliss excess [8] | Bliss excess [9] | Bliss excess [10] | Bliss excess [11] | Bliss excess [12] | Bliss excess [13] | Bliss excess [14] | Bliss excess [15] | Bliss excess [16] | Bliss excess [17] | Bliss excess [18] | Bliss excess [19] | Bliss excess [20]
CCc1c2c(nc3ccc(O)cc13)-c1cc3c(c(=O)n1C2)COC(=O)[C@]3(O)CC [SN-38] + O=C(c1cc(Cc2n[nH]c(=O)c3ccccc23)ccc1F)N1CCN(C(=O)C2CC2)CC1 [Olaparib] (first compound max 0.3 µM, 7x7, partner max 10 µM) | 0.756 | 0.0419 | 0.0247 | 0.0278 | 0.0423 | -0.0338 | 0.036 | 0.0503 | 0.0066 | 0.0505 | 0.0159 | 0.0322 | 0.0062 | 0.0784 | 0.099 |  |  |  |  | 
NC1(C(=O)N[C@@H](CCO)c2ccc(Cl)cc2)CCN(c2ncnc3[nH]ccc23)CC1 [Capivasertib] + COc1nnc2ccc(N3CCC(c4ccc(OCCN5CCN(C)C(=O)[C@H]5C)cc4)CC3)nn12 [AZD5153] (first compound max 10 µM, 7x7, partner max 1 µM) | 0.931 | 0.0491 | 0.0617 | -0.0213 | -0.0184 | 0.0226 | 0.073 | -0.0351 | -0.042 | -0.008 | 0.124 | 0.0218 | 0.0382 | -0.0266 | 0.0151 | 0.0145 | -0.0242 | 0.0028 | 0.0578 | 0.0274
Cc1cc2ncnn2cc1Nc1ncc2c(n1)n(C1CCOCC1)c(=O)n2C [AZD7648] + O=C(c1cc(Cc2n[nH]c(=O)c3ccccc23)ccc1F)N1CCN(C(=O)C2CC2)CC1 [Olaparib] (first compound max 10 µM, 7x7, partner max 10 µM) | 0.393 | -0.0092 | -0.0511 | -0.0129 | -0.036 | -0.0409 | -0.0303 | -0.0003 | -0.0115 | -0.0192 | -0.034 | -0.043 | -0.0112 | -0.097 | -0.0269 | -0.134 | -0.0263 | -0.0213 | -0.0568 | 0.0239
COc1cccc(OCCCN)c1-c1cc(Nc2cnc(C#N)cn2)n[nH]1 [Prexasertib] + CCc1c2c(nc3ccc(O)cc13)-c1cc3c(c(=O)n1C2)COC(=O)[C@]3(O)CC [SN-38] (first compound max 1 µM, 7x7, partner max 0.3 µM) | 0.794 | 0.164 | -0.0024 | -0.0164 | -0.129 | 0.0321 | 0.0026 | -0.0235 | -0.0452 | -0.0713 | 0.0028 | -0.0219 | 0.0269 | -0.0373 | 0.0411 | 0.0073 | -0.0185 | -0.0289 | 0.0239 | -0.0197
Cc1c2c(nn1C)CSCc1cc(n(C)n1)CSc1cc(c3ccccc3c1)OCCCc1c(C(=O)O)n(C)c3c-2c(Cl)ccc13 [AZD5991] + C[C@@H](Nc1cc(F)cc(F)c1)c1cc(C(=O)N(C)C)cc2c(=O)cc(N3CCOCC3)oc12 [AZD8186] (first compound max 1 µM, 7x7, partner max 3 µM) | 0.862 | -0.0176 | 0.091 | 0.0192 | -0.105 | -0.0351 | -0.0348 | 0.0034 | -0.0454 | -0.0218 | 0.027 | -0.0082 | -0.0176 | -0.0842 | -0.0316 | -0.0351 | 0.0051 | -0.0164 | 0.0051 | -0.0091
COc1nnc2ccc(N3CCC(c4ccc(OCCN5CCN(C)C(=O)[C@H]5C)cc4)CC3)nn12 [AZD5153] + CN(CC[C@H](CSC1=CC=CC=C1)NC2=C(C=C(C=C2)S(=O)(=O)NC(=O)C3=CC=C(C=C3)N4CCC(CC4)[C@H](C5=CC=CC=C5C6=CC=C(C=C6)Cl)O)S(=O)(=O)C(F)(F)F)CCO [AZD4320] (first compound max 1 µM, 7x7, partner max 1 µM) |  | 0.0165 | -0.0781 |  |  |  | -0.0568 | 0.0111 |  |  |  | 0.0314 |  |  |  | 0.0205 | 0.0691 | 0.0556 | 0.0358 | -0.0077
CC(=O)Nc1cccc(-n2c(=O)n(C3CC3)c(=O)c3c(Nc4ccc(I)cc4F)n(C)c(=O)c(C)c32)c1 [Trametinib] + Cc1nc(-c2cn3c(n2)-c2ccc(-c4cnn(C(C)(C)C(N)=O)c4)cc2OCC3)n(C(C)C)n1 [Taselisib] (first compound max 1 µM, 7x7, partner max 10 µM) | 0.921 | 0.0462 |  | -0.0308 | 0.0501 | 0.0777 | 0.196 | -0.0601 | 0.0265 | 0.0401 | 0.176 | 0.0078 | 0.0184 | 0.0493 | 0.0182 | 0.215 | -0.0138 | 0.0462 | 0.124 | 0.539
CS(=O)(=O)CCNCc1ccc(-c2ccc3ncnc(Nc4ccc(OCc5cccc(F)c5)c(Cl)c4)c3c2)o1 [Lapatinib] + Cn1cnc2c(F)c(Nc3ccc(Br)cc3Cl)c(C(=O)NOCCO)cc21 [Selumetinib] (first compound max 10 µM, 7x7, partner max 10 µM) | 0.963 |  |  | 0.0154 | -0.0364 | 0.0488 |  |  | -0.0751 | 0.0271 | -0.0187 |  | -0.0596 | -0.0403 | -0.0433 |  |  |  |  | 
Cc1c2c(nn1C)CSCc1cc(n(C)n1)CSc1cc(c3ccccc3c1)OCCCc1c(C(=O)O)n(C)c3c-2c(Cl)ccc13 [AZD5991] + CN(C)CCCOc1ccc(-c2ccc3ncc4c(c3c2)n(C2CCOCC2)c(=O)n4C)cn1 [AZD0156] (first compound max 1 µM, 7x7, partner max 1 µM) | 0.828 | -0.0266 | 0.0117 | 0.0054 | 0.0256 | 0.0077 | -0.0198 | -0.0327 | 0.0047 | -0.0121 | 0.0347 | 0.0371 | -0.039 | 0.006 | -0.0067 | -0.0329 |  | -0.0063 | 0.0141 | -0.0117
C[C@@H](c1ccc2nccn2c1)n1nnc2ncc(-c3cnn(C)c3)nc21 [Savolitinib] + CN(CC[C@H](CSC1=CC=CC=C1)NC2=C(C=C(C=C2)S(=O)(=O)NC(=O)C3=CC=C(C=C3)N4CCC(CC4)[C@H](C5=CC=CC=C5C6=CC=C(C=C6)Cl)O)S(=O)(=O)C(F)(F)F)CCO [AZD4320] (first compound max 1 µM, 7x7, partner max 1 µM) |  | -0.0091 | -0.0241 |  |  |  | -0.0477 | 0.0059 |  |  |  | -0.0621 |  |  |  | 0.0288 | -0.0418 | -0.0309 | -0.0378 | -0.0182
C=CCn1c(=O)c2cnc(Nc3ccc(N4CCN(C)CC4)cc3)nc2n1-c1cccc(C(C)(C)O)n1 [AZD1775] + C1CN(CCC1(C(=O)N[C@@H](CCO)C2=CC=C(C=C2)Cl)N)C3=NC=NC4=C3C=CN4 [Capivasertib] (first compound max 3 µM, partner max 3 µM) | 0.912 | 0.0216 | 0.0361 | -0.06 | -0.0088 | 0.0131 | 0.0275 | 0.0225 | -0.0565 | -0.0234 |  | -0.0042 | 0.0254 | -0.064 | -0.0224 | 0.0263 | -0.0617 | 0.0061 | -0.0191 | 0.0073
COc1cc2ncnc(Nc3ccc(F)c(Cl)c3)c2cc1OCCCN1CCOCC1 [Gefitinib] + CC(C)n1c(=O)n(C)c2cnc3cc(F)c(-c4ccc(OCCCN5CCCCC5)nc4)cc3c21 [AZD1390] (first compound max 10 µM, 7x7, partner max 0.3 µM) | 0.425 | -0.04 | -0.113 | -0.0342 | -0.0562 | -0.074 | -0.0527 | -0.0553 | -0.0444 | -0.0092 | -0.003 | -0.0718 | -0.0466 | -0.0325 | -0.0271 | -0.0462 | -0.0643 | -0.0751 |  | -0.0673
CN(CCO)CC[C@H](CSc1ccccc1)Nc1ccc(S(=O)(=O)NC(=O)c2ccc(N3CCC([C@@H](O)c4ccccc4-c4ccc(Cl)cc4)CC3)cc2)cc1S(=O)(=O)C(F)(F)F [AZD4320] + C[C@@H]1COCCN1C2=NC(=NC(=C2)C3(CC3)[S@](=N)(=O)C)C4=C5C=CNC5=NC=C4 [AZD6738] (first compound max 1 µM, 7x7, partner max 10 µM) | 0.942 | -0.0209 | -0.011 | -0.0302 | -0.113 | -0.042 | -0.021 | -0.0241 | -0.0472 | -0.0097 | 0.0161 | -0.0395 | -0.0331 |  | -0.0311 | 0.0272 | -0.0367 | -0.0657 | -0.0315 | 0.0245
